Data as given in patent publication US9012439B2, “Use of electrophilic compounds for inducing platelet production or maintaining platelet function” (University of Rochester, priority 2007, dated 2015).

Columns and labels:
[1] = test system: primary human megakaryocytes; experiment: Reactive oxygen species production in primary human megakaryocytes; assay type: cell-based; conditions: 1 h and 6 h
Description: Human CD34+ cord blood cells were obtained from the National Disease Research Interchange (NDRI, Philadelphia, Pa.). Cells were plated at 2.5×10^5 cells per well in a 12-well plate and cultured in serum-free medium as previously described (Zeuner et al., “Chemotherapy-induced Thrombocytopenia Derives from the Selective Death of Megakaryocyte Progenitors and Can Be Rescued by Stem Cell Factor,” Cancer Res 67:4767-4773 (2007), which is hereby incorporated by reference in its entirety) and supplemented with 100 ng/mL of rhTPO. After 14 days in culture, megakaryocytes were identified by staining with a CD61-FITC antibody and analyzed on a BD Biosciences FACSCalibur flow cytometer. Data were analyzed using FlowJo software (Treestar, Ashland, Oreg.). Cell images were captured using an inverted microscope (Olympus IX81). Ten μM carboxy-H2DCFDA was added to cells for 20 min at RT. The cells were washed and immediately analyzed by flow cytometry. Five μM of MitoSOX Red dye in HBSS containing Mg^2+ and Ca^2+ was added to the cells for 15 min at 37° C. The cells were washed in HBSS and analyzed by flow cytometry.

[2] = test system: mouse bone marrow culture-derived platelets; experiment: Function of mouse bone marrow culture-derived platelets (collagen response, spreading on fibrinogen); assay type: cell-based, mouse (C57BL/6)
Description: Platelets were isolated from the Meg-01 cells and human blood as described above. Both normal human platelets and Meg-01-derived platelets were stained with annexin V-FITC then treated with 10 μg/ml of collagen for 15 min. Cells were analyzed for collagen-induced annexin V binding and change in size and shape by flow cytometry. Platelets were isolated from primary human megakaryocytes and primary mouse megakaryocytes as described above. Primary human platelets were stained with CD41-FITC and primary mouse platelets were stained with CD61-PE then treated with 10 μg/mL of collagen. Cells were analyzed for collagen-induced CD61/CD41 upregulation and change in size and shape using flow cytometry.
Coverslips were coated with 100 μg/mL of fibrinogen for 1 h and blocked with 0.5 mg/mL BSA for 1 h. Platelets were added to the fibrinogen-coated coverslips in Tyrode's buffer and fixed with glutaraldehyde, post-fixed with 1% osmium tetroxide, and dehydrated. Platelets were then coated with a gold/palladium film. Images were acquired using the Zeiss-Leo 982 FE-SEM (scanning electron microscope).

C57BL/6 mice [3] = experiment: Irradiation-induced thrombocytopenia (5 Gy total body irradiation); assay type: in vivo, mouse (C57BL/6)
Description: (§1) Seven or 8-week-old male C57BL/6 mice (Jackson Laboratories) were either exposed to 5 Gy cesium (Cs^137) total body irradiation (TBI) using a Model 8114 6000 Curie Shepherd Cs^137 irradiator (approximately 3200 Curie sealed Cs^137 source) with a dose rate of […] or left unexposed. Mice (n=4) received intravenous injections of vehicle (8% DMSO) or 15d-PGJ2 (1 mg/kg) or CDDO-Me (250 μg/kg) for 4 consecutive days from day 1 (days 1, 2, 3 and 4 post-irradiation). Blood was obtained from the aorta or the orbital sinus. Platelets were counted prior to radiation exposure and after radiation exposure on day 10, day 22, and day 31 in Example 7, or days 4, 10, 16, and 21 in Example 9 using the Heska® CBC-Diff™ Veterinary Analyzer (Fort Collins, Colo.). Data are expressed as average platelet counts from two separate experiments. For the unirradiated mice, platelets were counted on day 4, day 10, and day 15 in Example 7 or on the same days in Example 9.

[4] = test system: primary mouse megakaryocytes; experiment: DNA content analysis of primary mouse megakaryocytes; assay type: cell-based
Description: Bone marrow was isolated from the femora of male C57BL/6 mice (Jackson Laboratories, Bar Harbor, Me.) and plated at a concentration of 1×10^6 cells per well in 12-well plates in IMDM (Iscove's Modified Dulbecco's Media, Invitrogen) with 20% BIT 9500 (BSA, insulin, transferrin) and supplemented with 100 ng/mL of rhTPO. Cells were cultured for 5 days, following which 15d-PGJ2 (10 μM) was added to the culture medium for 24 h. On the sixth day, cells were examined by phase-contrast microscopy using an inverted microscope (Olympus IX81) and images were captured using SPOT RT software (New Hyde Park, N.Y.). Megakaryocytes were identified by preincubating with anti-mouse CD16/32 (FcγR-blocking antibody) and then incubating with PE-conjugated hamster anti-mouse CD41 antibody.
Cells were fixed in 95% ethanol, treated with RNAse (Sigma) followed by 20 μg/mL propidium iodide (Sigma) to stain DNA, and analyzed by flow cytometry.

Meg-01 cells [5] = experiment: Reactive oxygen species production in Meg-01 cells (carboxy-H2DCFDA, MitoSOX Red); assay type: cell-based, human; conditions: for percentage of Meg-01 cells that produce mitochondrial superoxide (MitoSOX Red): 10 μM
Description: Ten μM carboxy-H2DCFDA was added to cells for 20 min at RT. The cells were washed and immediately analyzed by flow cytometry. Five μM of MitoSOX Red dye in HBSS containing Mg^2+ and Ca^2+ was added to the cells for 15 min at 37° C. The cells were washed in HBSS and analyzed by flow cytometry.

Meg-01 cells [6] = experiment: Active-caspase protein in Meg-01 cells; assay type: cell-based, human; conditions: Meg-01 cells in the presence of 15d-PGJ2
C57BL/6 mice [7] = experiment: Circulating platelet number in unirradiated mice; assay type: in vivo, mouse (C57BL/6); conditions: unirradiated mice, 1 mg/kg IV for 4 consecutive days
Description: as §1

**Q.** How did the “percentage of ROS positive cells, Mitosox Red staining” value [1] turn out when `CCCCCC=CC=C1C(=O)C=C[C@@H]1CC=CCCCC(=O)O` [15d-PGJ2, 15-deoxy-Δ^12,14 prostaglandin J2] was run?
**A.** increase in the percentage of ROS positive cells

**Q.** And the “percentage of ROS positive cells, carboxy-H2DCFDA staining” value [1]?
**A.** increase in the percentage of ROS positive cells

**Q.** And the “platelet spreading on fibrinogen” value ([2]; mouse bone marrow culture-derived platelets, fibrinogen coated slide)?
**A.** spread in response to fibrinogen

**Q.** What about the “geometric mean fluorescence intensity of surface CD41, after collagen treatment” value ([2]; platelets from mouse bone marrow cultures treated with 15d-PGJ2, collagen 10 μg/mL, 15 min) of the same molecule?
**A.** 20

**Q.** What about the “geometric mean fluorescence intensity of surface CD41, before collagen” value ([2]; platelets from mouse bone marrow cultures treated with 15d-PGJ2, no collagen) of the same molecule?
**A.** 9

**Q.** And the “weight versus vehicle-treated mice” value (C57BL/6 mice [3]; 1 mg/kg IV for 4 consecutive days)?
**A.** no differences in weight

**Q.** What about the platelet numbers (C57BL/6 mice [3]; 5 Gy, 1 mg/kg IV days 1-4, by day 31) of the same molecule?
**A.** approximately 800,000 /μL

**Q.** And the “platelet recovery compared to vehicle mice” value (C57BL/6 mice [3]; 5 Gy, 1 mg/kg IV days 1-4, day 22 and day 31)?
**A.** accelerated platelet recovery

**Q.** What about the “primary mouse megakaryocyte ploidy” value ([4]; by 24 h) of the same molecule?
**A.** enhanced primary mouse megakaryocyte ploidy

**Q.** And the DNA content ([4]; primary mouse megakaryocytes, 10 μM, 24 h)?
**A.** increased DNA content

**Q.** What about the “percentage of Meg-01 cells that produce mitochondrial superoxide (MitoSOX Red)” value (Meg-01 cells [5]; 1 h) of the same molecule?
**A.** 43%

**Q.** And the “percentage of Meg-01 cells that produce mitochondrial superoxide (MitoSOX Red)” value (Meg-01 cells [5]; 6 h)?
**A.** 31%

**Q.** And the “percentage of Meg-01 cells that express ROS (carboxy-H2DCFDA)” value (Meg-01 cells [5]; 1 h)?
**A.** 91%

**Q.** What about the “percentage of Meg-01 cells that express ROS (carboxy-H2DCFDA)” value (Meg-01 cells [5]; 6 h) of the same molecule?
**A.** 97%

**Q.** What about the active-caspase protein (Meg-01 cells [6]) of the same molecule?
**A.** upregulated active-caspase protein

**Q.** What about the “platelet numbers compared with vehicle” value (C57BL/6 mice [7]) of the same molecule?
**A.** higher platelet numbers
